# Values quoted from earlier work, collected in patent publication US20020086070A1, “Anti-inflammatory and connective tissue repair formulations” (priority 2000, published 2002).
# Experiments:
# COX-2 over COX-1 = settings: specificity for COX-2 over COX-1
# [1] = biological target: cyclooxygenase-2 induction; settings: TNFalpha-dependent induction; read-out: IC(50) for suppression of TNFalpha-dependent cyclooxygenase-2 induction
# [2] = test system: arachidonic acid-induced inflammatory ear edema; settings: mice
# skin tumor formation = settings: following initiation with a chemical challenge
IC50 [1],SMILES,COX-2 specificity (COX-2 over COX-1),inhibition of arachidonic acid-induced inflammatory ear edema [2],inhibition of skin tumor formation (skin tumor formation)
–,CC(=O)Oc1ccccc1C(=O)O [aspirin],0.6,–,–
~30 nM,CC(C)=CCC1=C(O)[C@](O)(CC=C(C)C)C(=O)C(C(=O)CC(C)C)=C1O [humulon],–,inhibited,inhibited skin tumor formation
